Experimental data reported in patent US20110262945A1, “GLYCOPROTEIN PRODUCTION METHOD AND SCREENING METHOD” (OTSUKA CHEMICAL CO., LTD., priority 2008, published 2011).
Where a SMILES comes first, the peptide text is derived from it. [ ]: non-standard residue; d: D form. Thz = O=C(O)[C@@H]1CSCN1

Experiments:
[1] = molecular target: T1, Chymotrypsin (Bos taurus, UniProt P00766); assay: Michaelis-Menten plot of the substrate peptide (degradation by chymotrypsin); assay type: biochemical; design: unit not given here; conditions: 30 minutes at 37° C.
Protocol: (§1) Into 1 mL of a 0.1 M phosphate buffer (pH 8.0, containing BSA (0.1 mg/mL)), 3.1 mg of the 14-residue peptide thus synthesized (SEQ ID NO:16) was dissolved to prepare a 2 mM solution. This solution was diluted to prepare substrate solutions having concentrations of 1.6 mM, 1.2 mM, 0.8 mM, 0.4 mM, 0.2 mM, 0.1 mM, and 0.05 mM. Separately, chymotrypsin (1 mg) was dissolved in 1 mL of a 0.1 M phosphate buffer (pH 8.0, containing BSA (0.1 mg/mL)). The resulting solution was diluted 10-fold, and further diluted 10-fold. The above operation was repeated so that a solution of 0.1 μg/mL was prepared. Into the same Eppendorf tube, 50 μL of a substrate solution of each concentration that was sufficiently cooled on ice and 50 μL of the enzyme solution were transferred, followed by incubation for 30 minutes at 37° C. After 30 minutes, the reaction was terminated by addition of 10 μL of 1N hydrochloric acid. Then, 20 μL of the resulting reaction solution was mixed with 80 μL of buffer to make up a total of 100 μL, which was then measured by HPLC. A degradation rate per unit time (a reaction rate per unit time) was calculated from the peak area of HPLC of the reaction product (FIG. 36).

[2] = molecular target: T1, Chymotrypsin; assay: Lineweaver-Burk plot of the substrate peptide (degradation by chymotrypsin); assay type: biochemical; conditions: 30 minutes at 37° C.
Protocol: as §1, with “mg/mL)), 1.5” for “mg/mL)), 3.1”, “a 1” for “a 2”, “of 1” for “of 1.6”, “mM, 500 μM, 333 μM, 250 μM,” for “mM, 1.2 mM, 0.8 mM, 0.4 mM, 0.2 mM, 0.1 mM,”, “and 200 μM.” for “and 0.05 mM.”, “(FIG. 37).” for “(FIG. 36).”

In the case of `C[C@@H](O)[C@H](NC(=O)[C@H](CCCCN)NC(=O)[C@H](CC(N)=O)NC(=O)[C@H](CC(=O)O)NC(=O)[C@H](CO)NC(=O)CNC(=O)[C@@H]1CSCN1)C(=O)N[C@@H](Cc1ccc(O)cc1)C(=O)NCC(=O)N[C@@H](CC(N)=O)C(=O)N[C@@H](CCCCN)C(=O)N[C@@H](CS)C(=O)N[C@@H](CC(N)=O)C(=O)N[C@@H](Cc1ccccc1)C(=O)O` [substrate peptide] (H-[Thz]GSDNKTYGNKCNF-OH), the “V (reaction rate per unit time)” value ([1]; substrate 0.05 mM) is reported as 0.013, the “V (reaction rate per unit time)” value ([1]; substrate 0.1 mM) is reported as 0.027 and the “V (reaction rate per unit time)” value ([1]; substrate 0.2 mM) is reported as 0.046. The “V (reaction rate per unit time)” value ([1]; substrate 0.4 mM) was 0.068, the “V (reaction rate per unit time)” value ([1]; substrate 0.6 mM) was 0.075 and the “V (reaction rate per unit time)” value ([1]; substrate 0.8 mM) was 0.083. For the same compound, the “V (reaction rate per unit time)” value ([1]; substrate 1 mM) was 0.087, the “1/V (inverse of the reaction rate)” value ([2]; 1/Substrate 2 1/mM) was 7.02 mol⁻¹ min⁻¹ and the “1/V (inverse of the reaction rate)” value ([2]; 1/Substrate 4 1/mM) was 8.51 mol⁻¹ min⁻¹. For the same compound, the “1/V (inverse of the reaction rate)” value ([2]; 1/Substrate 6 1/mM) was 11.9 mol⁻¹ min⁻¹, the “1/V (inverse of the reaction rate)” value ([2]; 1/Substrate 8 1/mM) was 10.9 mol⁻¹ min⁻¹ and the “1/V (inverse of the reaction rate)” value ([2]; 1/Substrate 10 1/mM) was 14.7 mol⁻¹ min⁻¹.
